According to patent US8648086B2, “5,6-bicyclic heteroaryl-containing urea compounds as kinase inhibitors” (Ascepion Pharmaceuticals, Inc., priority 2009, dated 2014):
Structures can show the parent of a compound that is named as a salt.

What was measured:
PDGFRβ = molecular target: T1, PDGFRβ (Homo sapiens, UniProt P09619); assay: PDGFRβ cell-based assay (phospho-PDGFRβ ELISA, transfected CHO cells); conditions: compound at 100 nM, read-out: % PDGFRβ kinase activity remains
T1 construct: expressed in transfected cells; host or cells: CHO cells, pcDNA3.1 plasmid
Procedure: A standard cell-based assay for PDGFRβ kinase activity can be used to test a compound of this invention and to identify PDGFRβ antagonists.
Specifically, a compound to be tested was first dissolved in DMSO to a concentration of 10 mM and stored at −20° C. The activity of PDGFRβ in cells depends on the phosphorylation level of its intracellular domain induced by the ligand. In order to express PDGFRβ in the cell, full length PDGFRβ sequence was cloned into PC-DNA3.1 vector. The plasmid was then transfected into CHO cells. After 48 hours following the transfection, the expression of PDGFRβ in transfected CHO cells was confirmed by regular western blotting.
To screen the compound of this invention, the ELISA kit (R&D Systems, Minneapolis, Minn., USA) was used. One day before the screening, CHO cells transfected with full length PDGFRβ plasmid were grown in DMEM medium without the presence of serum. On the day of screening, various concentrations of compounds (from 0.5 nM to 500 nM) were added into DMEM medium. Two hours later, 20% of FBS (Fetal Bovine Serum) was added into the medium to stimulate the expression of phosphor-PDGFRβ. Cell lysate from approximately 5×10^5 transfected CHO cells were reacted with anti-phosphor-PDGFRβ or anti-total PDGFRβ antibody in 96 well plates, in the presence of detection antibody, the phosphor-PDGFRβ or total PDGFRβ were detected with Streptavidin-HRP (R&D Systems), followed by chemiluminescent detection.

VEGFR2 = molecular target: T2, VEGFR2 (Homo sapiens, UniProt P35968); assay: VEGFR2 cell-based assay (phospho-VEGFR2 ELISA, transfected CHO cells); conditions: compound at 100 nM, read-out: % VEGFR2 kinase activity remains
T2 construct: expressed in transfected cells; host or cells: CHO cells, pcDNA3.1 plasmid
Summary of the method: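 Serum-starved CHO cells transfected with full-length VEGFR2 treated 2 h with compound (0.5–500 nM), then stimulated with 20% FBS. Lysates analyzed by ELISA for phospho- and total VEGFR2 using streptavidin-HRP chemiluminescence.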

c-Met = molecular target: T3, c-Met (Homo sapiens, UniProt P08581); assay: c-Met cell-based assay (phospho-c-Met ELISA, A549 cells); conditions: compound at 100 nM
T3 construct: endogenous in cells; host or cells: A549 cells
Summary of the method: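 Serum-starved A549 cells (NSCLC) pretreated 2 h with compound (0.5 nM to 500 nM), then stimulated 20 min with 20% FBS. Lysates analysed by ELISA for phospho-c-Met and total c-Met with streptavidin-HRP chemiluminescence.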

[1] = tested on: MDA-MB-231 human breast cancer cells; assay: In vivo anti-tumor efficacy, MDA-MB-231 xenograft; conditions: Breast cancer MDA-MB-231, nu/nu Balb/c mice, 100 mg/kg oral once per day, n = 2 × 3
Procedure: (§1) Female (nu/nu) Balb/c athymic mice at 4-6 weeks of age were injected subcutaneously (s.c.) with MDA-MB-231 human breast cancer cells, A549 human non-small cell lung cancer cells, U87-MG human glioblastoma cells, PC-3 human prostate cancer cells, HT-29 human colon cancer, BEL-7404 human hepatocellular carcinoma, or MKN-45 human gastric cancer cells (ATCC, 5×10^6 cells suspended in 100 μl DMEM medium). Treatment was initiated after the tumor mass grown from s.c. implanted tumor cells reached a median volume of 200-400 mm^3. Mice were randomized into groups with three in each group for small-sample efficacy tests such that the median tumor volume is nearly equal among all groups. For large-sample efficacy tests, mice were randomized into groups with thirteen or fourteen in each group. Each group was treated either with compounds (dissolved in 2:1 mixture of PEG400 and 0.01N HCl (v/v)) or without compounds (vehicle only, 2:1 mixture of PEG400 and 0.01N HCl (v/v)) once per day at dose 12.5, 25, 50 or 100 mg/kg by oral gavage. Tumor volumes were assessed at least twice weekly by caliper measurement from the start of treatment. Tumor volume was calculated using the formula ½×L×W^2 (L: length of tumor's long axis, W: length of tumor's short axis). Treatment was applied for at least two weeks or until the tumor volume reaches a size of ˜2500 mm^3 or greater. Mice were humanly sacrificed after the experiment.
(§2) The efficacy of compounds in reducing tumor growth was assessed by the index Tumor Growth Inhibition (TGI). TGI for a given treatment period was calculated using the group mean tumor volumes according to the formula: TGI=100×(VVehicle—group−VTreatment—group)÷VVehicle—group wherein VVehicle—group represents the mean tumor volume for the group treated with vehicle and VTreatment—group represents the mean tumor volume of the group treated with a compound.

[2] = tested on: A549 human non-small cell lung cancer cells; assay: In vivo anti-tumor efficacy, A549 xenograft; conditions: Non-small cell lung cancer A549, nu/nu Balb/c mice, n = 2 × 3
Procedure: as §1, with “experiment. The efficacy of compounds in reducing tumor growth was assessed by the index Tumor Growth Inhibition (TGI). TGI for a given treatment period was calculated using the group mean tumor volumes according to the formula: TGI=100×(VVehicle—group−VTreatment—group)÷VVehicle—group wherein VVehicle—group represents the mean tumor volume for the group treated with vehicle and VTreatment—group represents the mean tumor volume of the group treated with a compound.” for “experiment.”

HT-1299 = assay: In vivo anti-tumor efficacy, HT-1299 lung cancer xenograft; conditions: Lung cancer HT-1299, nu/nu Balb/c mice, 100 mg/kg oral once per day, n = 2 × 3
[3] = tested on: MKN-45 human gastric cancer cells; assay: In vivo anti-tumor efficacy, MKN-45 xenograft; conditions: Gastric cancer MKN-45, nu/nu Balb/c mice, 100 mg/kg oral once per day, n = 2 × 3
Procedure: as §1, with “experiment. The efficacy of compounds in reducing tumor growth was assessed by the index Tumor Growth Inhibition (TGI). TGI for a given treatment period was calculated using the group mean tumor volumes according to the formula: TGI=100×(VVehicle—group−VTreatment—group)÷VVehicle—group wherein VVehicle—group represents the mean tumor volume for the group treated with vehicle and VTreatment—group represents the mean tumor volume of the group treated with a compound.” for “experiment.”

[4] = tested on: PC-3 human prostate cancer cells; assay: In vivo anti-tumor efficacy, PC-3 xenograft; conditions: Prostate cancer PC-3, nu/nu Balb/c mice, n = 2 × 3
Procedure: as §1, with “experiment. The efficacy of compounds in reducing tumor growth was assessed by the index Tumor Growth Inhibition (TGI). TGI for a given treatment period was calculated using the group mean tumor volumes according to the formula: TGI=100×(VVehicle—group−VTreatment—group)÷VVehicle—group wherein VVehicle—group represents the mean tumor volume for the group treated with vehicle and VTreatment—group represents the mean tumor volume of the group treated with a compound.” for “experiment.”

[5] = tested on: U87-MG human glioblastoma cells; assay: In vivo anti-tumor efficacy, U87-MG xenograft; conditions: nu/nu Balb/c mice, 100 mg/kg oral once per day, n = 2 × 3
Procedure: Female (nu/nu) Balb/c athymic mice at 4-6 weeks of age were injected subcutaneously (s.c.) with MDA-MB-231 human breast cancer cells, A549 human non-small cell lung cancer cells, U87-MG human glioblastoma cells, PC-3 human prostate cancer cells, HT-29 human colon cancer, BEL-7404 human hepatocellular carcinoma, or MKN-45 human gastric cancer cells (ATCC, 5×10^6 cells suspended in 100 μl DMEM medium). Treatment was initiated after the tumor mass grown from s.c. implanted tumor cells reached a median volume of 200-400 mm^3. Mice were randomized into groups with three in each group for small-sample efficacy tests such that the median tumor volume is nearly equal among all groups. […] Tumor volumes were assessed at least twice weekly by caliper measurement from the start of treatment. Tumor volume was calculated using the formula ½×L×W^2 (L: length of tumor's long axis, W: length of tumor's short axis). […] The efficacy of compounds in reducing tumor growth was assessed by the index Tumor Growth Inhibition (TGI). TGI for a given treatment period was calculated using the group mean tumor volumes according to the formula: TGI=100×(VVehicle—group−VTreatment—group)÷VVehicle—group wherein VVehicle—group represents the mean tumor volume for the group treated with vehicle and VTreatment—group represents the mean tumor volume of the group treated with a compound.

c-Kit = molecular target: T4, c-Kit (Homo sapiens, UniProt P10721); assay: KINOMEscan competition binding assay, c-Kit; conditions: compound at 100 nM; lower number indicates stronger hit
T4 construct: purchased KINOMEscan service (Ambit Biosciences, San Diego)
Procedure: (§3) A standard competition binding assay can be used to test the ability of a compound of this invention on competing with both intended and unintended kinases in vitro. To screen a compound against a large number of human kinases, a competition binding assay with an active-site dependent binding technology was performed by KINOMEscan service (Ambit Biosciences, San Diego, Cal., USA). Three components were combined in this assay—DNA-tagged kinase, immobilized ligand, and the test compound. The ability of the test compound to compete with the immobilized ligand was measured by quantitative PCR of the DNA of the DNA tag. A number of the compounds of this invention were screened at the concentration of 100 nM by this binding assay, and the results were reported as “% Ctrl,” and the lower number indicates stronger “hit” in this matrix.

CSF-1R = molecular target: T5, CSF-1R (Homo sapiens, UniProt P07333); assay: KINOMEscan competition binding assay, CSF-1R; conditions: compound at 100 nM; lower number indicates stronger hit
T5 construct: purchased KINOMEscan service (Ambit Biosciences, San Diego)
Procedure: as §3

EPHA2 = molecular target: T6, EPHA2 (Homo sapiens, UniProt P29317); assay: KINOMEscan competition binding assay, EPHA2; conditions: compound at 100 nM; lower number indicates stronger hit
T6 construct: purchased KINOMEscan service (Ambit Biosciences, San Diego)
Procedure: as §3

[6] = tested on: BEL-7404 human hepatocellular carcinoma; assay: In vivo anti-tumor efficacy, BEL-7404 xenograft; conditions: Liver cancer BEL-7404, nu/nu Balb/c mice, 50 mg/kg oral once per day, n = 2 × 3
Procedure: Female (nu/nu) Balb/c athymic mice at 4-6 weeks of age were injected subcutaneously (s.c.) with MDA-MB-231 human breast cancer cells, A549 human non-small cell lung cancer cells, U87-MG human glioblastoma cells, PC-3 human prostate cancer cells, HT-29 human colon cancer, BEL-7404 human hepatocellular carcinoma, or MKN-45 human gastric cancer cells (ATCC, 5×10^6 cells suspended in 100 μl DMEM medium). Treatment was initiated after the tumor mass grown from s.c. implanted tumor cells reached a median volume of 200-400 mm^3. Mice were randomized into groups with three in each group for small-sample efficacy tests such that the median tumor volume is nearly equal among all groups. […] Tumor volumes were assessed at least twice weekly by caliper measurement from the start of treatment. Tumor volume was calculated using the formula ½×L×W^2 (L: length of tumor's long axis, W: length of tumor's short axis). […]
as §2

T3 sequence (P08581 25-1390): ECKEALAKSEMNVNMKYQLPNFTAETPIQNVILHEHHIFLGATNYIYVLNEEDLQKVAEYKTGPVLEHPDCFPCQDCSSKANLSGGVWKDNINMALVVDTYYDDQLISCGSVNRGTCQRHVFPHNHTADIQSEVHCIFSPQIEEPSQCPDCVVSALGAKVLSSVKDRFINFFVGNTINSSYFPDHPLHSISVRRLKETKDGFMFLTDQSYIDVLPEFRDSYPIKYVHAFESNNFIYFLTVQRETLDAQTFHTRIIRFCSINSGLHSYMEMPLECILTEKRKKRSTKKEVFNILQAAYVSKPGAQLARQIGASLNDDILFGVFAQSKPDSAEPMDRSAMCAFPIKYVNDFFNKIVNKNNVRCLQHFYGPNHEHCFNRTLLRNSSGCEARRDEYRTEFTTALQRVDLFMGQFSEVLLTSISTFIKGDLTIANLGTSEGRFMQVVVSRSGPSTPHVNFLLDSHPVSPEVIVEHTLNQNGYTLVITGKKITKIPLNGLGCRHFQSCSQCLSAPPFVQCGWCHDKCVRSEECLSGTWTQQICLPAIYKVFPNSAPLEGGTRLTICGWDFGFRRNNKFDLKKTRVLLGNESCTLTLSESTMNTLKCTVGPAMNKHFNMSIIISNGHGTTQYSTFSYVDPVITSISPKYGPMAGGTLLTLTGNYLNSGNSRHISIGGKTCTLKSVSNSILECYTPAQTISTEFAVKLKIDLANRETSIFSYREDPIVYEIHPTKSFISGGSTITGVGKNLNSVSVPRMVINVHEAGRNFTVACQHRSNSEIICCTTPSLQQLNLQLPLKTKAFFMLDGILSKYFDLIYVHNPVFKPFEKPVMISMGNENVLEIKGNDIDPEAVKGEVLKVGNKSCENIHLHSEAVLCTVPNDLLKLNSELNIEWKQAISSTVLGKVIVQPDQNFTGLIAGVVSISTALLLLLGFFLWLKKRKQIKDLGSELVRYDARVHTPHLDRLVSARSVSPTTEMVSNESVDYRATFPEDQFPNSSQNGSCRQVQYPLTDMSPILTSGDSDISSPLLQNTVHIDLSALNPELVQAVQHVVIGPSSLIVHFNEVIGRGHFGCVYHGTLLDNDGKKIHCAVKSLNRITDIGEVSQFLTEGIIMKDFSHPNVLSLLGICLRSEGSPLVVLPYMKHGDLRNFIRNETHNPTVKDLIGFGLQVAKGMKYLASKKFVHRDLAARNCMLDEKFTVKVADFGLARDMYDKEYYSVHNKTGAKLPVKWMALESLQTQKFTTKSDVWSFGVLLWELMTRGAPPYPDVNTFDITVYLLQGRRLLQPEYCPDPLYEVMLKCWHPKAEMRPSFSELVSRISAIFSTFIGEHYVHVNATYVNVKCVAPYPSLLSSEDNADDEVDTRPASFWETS
T2 sequence (P35968 20-1356, species assumed): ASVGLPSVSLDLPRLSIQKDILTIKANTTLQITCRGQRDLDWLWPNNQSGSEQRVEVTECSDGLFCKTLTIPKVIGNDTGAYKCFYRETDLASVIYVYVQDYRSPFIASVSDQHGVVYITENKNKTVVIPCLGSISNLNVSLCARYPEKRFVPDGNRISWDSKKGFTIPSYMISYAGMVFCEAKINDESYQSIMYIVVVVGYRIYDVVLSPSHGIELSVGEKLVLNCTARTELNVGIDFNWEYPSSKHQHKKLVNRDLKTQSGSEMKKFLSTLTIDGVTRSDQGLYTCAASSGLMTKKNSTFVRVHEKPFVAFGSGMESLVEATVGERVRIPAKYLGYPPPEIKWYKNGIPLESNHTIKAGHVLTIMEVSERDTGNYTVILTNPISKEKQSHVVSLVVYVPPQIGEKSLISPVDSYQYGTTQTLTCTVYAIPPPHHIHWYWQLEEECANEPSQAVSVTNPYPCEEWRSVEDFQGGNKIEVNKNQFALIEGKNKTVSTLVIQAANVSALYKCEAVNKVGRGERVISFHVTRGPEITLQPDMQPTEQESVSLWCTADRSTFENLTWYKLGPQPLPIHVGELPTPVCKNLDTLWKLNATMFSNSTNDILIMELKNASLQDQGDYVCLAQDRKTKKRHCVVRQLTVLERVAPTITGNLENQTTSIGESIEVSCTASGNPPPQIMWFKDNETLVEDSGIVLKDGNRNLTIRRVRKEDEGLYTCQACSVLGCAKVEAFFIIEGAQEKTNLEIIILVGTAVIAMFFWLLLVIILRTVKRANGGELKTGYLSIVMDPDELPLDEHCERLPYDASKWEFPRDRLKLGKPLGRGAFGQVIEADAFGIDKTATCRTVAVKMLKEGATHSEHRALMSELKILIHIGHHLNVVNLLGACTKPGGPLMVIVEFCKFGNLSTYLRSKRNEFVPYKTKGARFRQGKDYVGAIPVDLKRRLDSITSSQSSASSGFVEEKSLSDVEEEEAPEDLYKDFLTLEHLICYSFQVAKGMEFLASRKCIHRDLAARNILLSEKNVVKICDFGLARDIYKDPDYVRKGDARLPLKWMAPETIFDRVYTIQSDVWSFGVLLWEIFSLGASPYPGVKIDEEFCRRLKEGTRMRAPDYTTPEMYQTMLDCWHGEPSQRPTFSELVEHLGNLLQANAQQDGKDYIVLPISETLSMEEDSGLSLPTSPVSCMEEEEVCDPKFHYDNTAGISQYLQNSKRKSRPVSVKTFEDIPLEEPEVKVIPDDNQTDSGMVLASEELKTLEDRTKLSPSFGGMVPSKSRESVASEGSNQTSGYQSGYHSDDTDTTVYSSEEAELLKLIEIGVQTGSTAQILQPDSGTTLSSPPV
T1 sequence (P09619 33-1106, species assumed): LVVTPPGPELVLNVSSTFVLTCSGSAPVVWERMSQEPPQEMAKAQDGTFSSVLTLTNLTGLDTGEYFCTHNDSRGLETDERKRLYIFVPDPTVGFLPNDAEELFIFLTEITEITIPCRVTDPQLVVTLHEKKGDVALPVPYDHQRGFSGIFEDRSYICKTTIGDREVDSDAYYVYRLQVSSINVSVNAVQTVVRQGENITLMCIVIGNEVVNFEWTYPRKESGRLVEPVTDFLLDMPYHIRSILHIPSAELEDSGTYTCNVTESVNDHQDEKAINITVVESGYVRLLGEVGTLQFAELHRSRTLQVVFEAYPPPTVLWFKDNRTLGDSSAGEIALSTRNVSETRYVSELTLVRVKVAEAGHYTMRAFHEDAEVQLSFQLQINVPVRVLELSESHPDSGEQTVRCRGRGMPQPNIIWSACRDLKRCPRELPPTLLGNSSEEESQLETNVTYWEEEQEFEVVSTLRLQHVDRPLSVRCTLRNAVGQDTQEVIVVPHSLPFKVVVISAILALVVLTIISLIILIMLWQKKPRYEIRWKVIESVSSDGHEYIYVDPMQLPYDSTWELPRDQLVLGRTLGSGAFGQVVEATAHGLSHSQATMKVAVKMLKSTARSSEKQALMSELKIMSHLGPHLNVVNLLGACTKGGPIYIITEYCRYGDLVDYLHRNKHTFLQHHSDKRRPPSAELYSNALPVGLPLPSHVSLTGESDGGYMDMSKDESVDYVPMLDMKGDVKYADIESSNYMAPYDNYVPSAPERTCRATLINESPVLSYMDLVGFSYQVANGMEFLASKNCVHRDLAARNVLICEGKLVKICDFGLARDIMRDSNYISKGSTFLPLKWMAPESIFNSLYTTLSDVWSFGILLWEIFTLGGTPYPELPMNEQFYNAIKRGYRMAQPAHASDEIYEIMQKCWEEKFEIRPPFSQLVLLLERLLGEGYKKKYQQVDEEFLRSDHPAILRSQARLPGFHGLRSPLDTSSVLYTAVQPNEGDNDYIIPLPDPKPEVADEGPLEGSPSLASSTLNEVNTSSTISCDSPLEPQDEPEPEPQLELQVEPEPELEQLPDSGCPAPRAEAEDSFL
T6 sequence (P29317 24-976): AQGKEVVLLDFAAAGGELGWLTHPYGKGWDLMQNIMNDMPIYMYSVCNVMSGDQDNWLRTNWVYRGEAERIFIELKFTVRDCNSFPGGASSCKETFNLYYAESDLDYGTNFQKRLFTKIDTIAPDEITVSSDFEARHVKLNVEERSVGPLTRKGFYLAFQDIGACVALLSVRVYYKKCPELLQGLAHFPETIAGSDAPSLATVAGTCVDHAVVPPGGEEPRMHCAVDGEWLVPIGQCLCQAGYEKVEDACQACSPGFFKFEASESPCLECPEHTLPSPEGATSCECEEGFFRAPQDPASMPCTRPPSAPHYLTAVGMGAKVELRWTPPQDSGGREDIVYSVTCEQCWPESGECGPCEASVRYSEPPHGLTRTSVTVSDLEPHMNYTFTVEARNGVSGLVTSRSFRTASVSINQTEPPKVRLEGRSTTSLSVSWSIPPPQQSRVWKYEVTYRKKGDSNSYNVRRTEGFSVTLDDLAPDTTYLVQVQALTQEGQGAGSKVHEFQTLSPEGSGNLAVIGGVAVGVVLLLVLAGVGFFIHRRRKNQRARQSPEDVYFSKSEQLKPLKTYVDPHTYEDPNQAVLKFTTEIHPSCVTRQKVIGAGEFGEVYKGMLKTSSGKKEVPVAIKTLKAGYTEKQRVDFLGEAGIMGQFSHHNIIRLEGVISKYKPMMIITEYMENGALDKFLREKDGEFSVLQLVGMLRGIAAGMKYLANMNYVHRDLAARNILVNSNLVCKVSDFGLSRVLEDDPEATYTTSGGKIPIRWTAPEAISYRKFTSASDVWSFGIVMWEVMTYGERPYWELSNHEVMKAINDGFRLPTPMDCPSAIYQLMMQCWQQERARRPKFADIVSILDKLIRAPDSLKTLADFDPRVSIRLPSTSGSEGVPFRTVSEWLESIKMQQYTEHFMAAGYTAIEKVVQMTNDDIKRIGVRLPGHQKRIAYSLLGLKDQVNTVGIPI

Row | remaining activity at 0.1 µM (PDGFRβ) | remaining activity at 0.1 µM (VEGFR2) | c-Kit % Ctrl (c-Kit) | CSF-1R % Ctrl (CSF-1R) | EPHA2 % Ctrl (EPHA2) | SMILES | % c-Met kinase activity remains (c-Met) | Tumor Growth Inhibition (TGI) [1] | Tumor Growth Inhibition (TGI) ([2]; 100 mg/kg oral once per day) | Tumor Growth Inhibition (TGI) (HT-1299) | Tumor Growth Inhibition (TGI) [3] | Tumor Growth Inhibition (TGI) ([4]; 100 mg/kg oral once per day) | Tumor Growth Inhibition (TGI) [5] | Tumor Growth Inhibition (TGI) ([2]; 50 mg/kg oral once per day) | Tumor Growth Inhibition (TGI) ([4]; 50 mg/kg oral once per day) | Tumor Growth Inhibition (TGI) [6]
1 | ≥ 70% | < 70% |  |  |  | COc1ccc(Cl)cc1NC(=O)Nc1cccc2c1ccn2Cc1c[nH]c2ncccc12.Cl [Example 3, 1-(2-Methoxyl-5-chlorophenyl)-3-[1-(1H-pyrrolo[2,3-b]pyridin-3-ylmethyl)-1H-indol-4-yl]urea hydrochloride] | A (the percentage of kinase activity remains is below 70%) | A (the TGI is greater or equal to 50%) | A (the TGI is greater or equal to 50%) | A (the TGI is greater or equal to 50%) |  |  |  |  |  | 
2 |  | < 70% |  |  |  | COc1ccc(Cl)cc1NC(=O)Nc1cccc2c1ccn2Cc1ccnc2[nH]ccc12.Cl [Example 2a/2b, 1-(2-Methoxyl-5-chlorophenyl)-3-[1-(1H-pyrrolo[2,3-b]pyridin-4-ylmethyl)-1H-indol-4-yl]urea hydrochloride] | A (the percentage of kinase activity remains is below 70%) | A (the TGI is greater or equal to 50%) | A (the TGI is greater or equal to 50%) |  | A (the TGI is greater or equal to 50%) | A (the TGI is greater or equal to 50%) | A (the TGI is greater or equal to 50%) |  |  | 
3 |  | < 70% | 0.35 % Ctrl | 0.8 % Ctrl | 6 % Ctrl | Cc1cccc(NC(=O)Nc2cccc3c2ccn3Cc2ccnc3[nH]ccc23)c1.Cl [Example 44, 1-(3-Methylphenyl)-3-[1-(1H-pyrrolo[2,3-b]pyridin-4-ylmethyl)-1H-indol-4-yl]urea hydrochloride] | A (the percentage of kinase activity remains is below 70%) | A (the TGI is greater or equal to 50%) |  |  | A (the TGI is greater or equal to 50%) |  |  | A (the TGI is greater or equal to 50%) | A (the TGI is greater or equal to 50%) | 
4 |  | < 70% |  |  |  | O=C(Nc1cccc(Cl)c1)Nc1cccc2c1ccn2Cc1ccnc2[nH]ccc12 [Example 38, 1-(3-Chlorophenyl)-3-[1-(1H-pyrrolo[2,3-b]pyridin-4-ylmethyl)-1H-indol-4-yl]urea hydrochloride] | A (the percentage of kinase activity remains is below 70%) | A (the TGI is greater or equal to 50%) |  |  |  |  |  |  |  | A (the TGI is greater or equal to 50%)
